Series [1] concerns Homo sapiens. Nature of the series: Ratio of percent compound before dosing in cirrhotic patients of spontaneous ascitic fluid infection. The format is ADME, organism-based. The note with it: in vivo.
A short description of series [2]: Percent of compound in cirrhotic patients of spontaneous ascitic fluid infection after dosing with normal antibiotics. In kind it is ADME. The note with it: human, in vivo.
Series [3] is described as follows: Percent of compound in healthy individuals (Group D). The format is ADME. The note with it: human.
The nature of series [4]: Percent of compound in cirrhotic patients of sterile ascitic fluid (Group C). In kind it is ADME. The note with it: human.
Series [5] relates to Homo sapiens. Nature of the series: Ratio of percent compound after dosing in cirrhotic patients of spontaneous ascitic fluid infection. The note with it: in vivo. The format is ADME, organism-based.
Series [6] can be described thus: Percent of compound in cirrhotic patients of spontaneous ascitic fluid infection (Group A and B). The note with it: human. In kind it is ADME.
The species entered for series [7] is Homo sapiens. Nature of the series: Ratio of lactulose and mannitol in cirrhotic patients of sterile ascitic fluid (Group C). In kind it is ADME, organism-based. The note with it: in vivo.
A short description of series [8]: Percent of compound in cirrhotic patients of spontaneous ascitic fluid infection before dosing with normal antibiotics and lactose. In kind it is ADME. The note with it: human, in vivo.
A short description of series [9]: Percent recovery of 500 ug/mL compound after administration in cirrhotic patients. The format is ADME. The note with it: human, in vivo.
Series [10] relates to Homo sapiens. Nature of the series: Ratio of percent compound before and after dosing in cirrhotic patients of spontaneous ascitic fluid infection. The note with it: in vivo. The format is ADME, organism-based.
Series [11] in a line: Percent of compound in cirrhotic patients of spontaneous ascitic fluid infection before dosing with normal antibiotics. In kind it is ADME. The note with it: human, in vivo.
Series [12] can be described thus: Percent recovery of 100 ug/mL compound after administration in cirrhotic patients. In kind it is ADME. The note with it: human, in vivo.
Series [13] can be described thus: Percent recovery of 10 ug/mL compound after administration in cirrhotic patients. The format is ADME. The note with it: human, in vivo.
The species entered for series [14] is Homo sapiens. Nature of the series: Ratio of lactulose and mannitol in cirrhotic patients of spontaneous ascitic fluid infection (Group A and B). In kind it is ADME, organism-based. The note with it: in vivo.
A short description of series [15]: Percent of compound in cirrhotic patients of spontaneous ascitic fluid infection after dosing with normal antibiotics and lactose. The format is ADME. The note with it: human, in vivo.
Series [16] is filed under the species Homo sapiens. Nature of the series: Ratio of lactulose and mannitol in healthy individuals (Group D). The format is ADME, organism-based. The note with it: in vivo.

Several values for one entry are separate records, joined by “and”; a condition that tells them apart may be missing. Equal values may be shown once.

On to `OC[C@H]1O[C@@H](O[C@@H]2[C@@H](CO)O[C@](O)(CO)[C@H]2O)[C@H](O)[C@@H](O)[C@H]1O` [LACTULOSE], for which the Ratio with Homo sapiens [1] is 0.1009; with Homo sapiens [5] it was 0.0814 and 0.0572; in the series listed under Homo sapiens [7], 0.0715; in the series with Homo sapiens [10], 0.1009; in the series filed under Homo sapiens [14] it was 0.1003; in the series listed under Homo sapiens [16], 0.0209. Moreover, the Activity amounted to 0.006% in series [2]; 0.00177% in [3]; 0.00476% in [4]; 0.00719% in series [6]; 0.0071% in [8]; 0.007% in series [11]. For the same molecule, the Activity in series [15] is given as 0.0044%. The Recovery in [9] turned out to be 97%; in series [12] it was 93.7%; in series [13] it was 93.1%.

For the molecule `OC[C@@H](O)[C@@H](O)[C@H](O)[C@H](O)CO` [MANNITOL], the Ratio was 0.1009 in the series on Homo sapiens [1]; 0.0814 and 0.0572 with Homo sapiens [5]; 0.0715 in the series filed under Homo sapiens [7]; 0.0985 in the series on Homo sapiens [10]; 0.1003 in the series listed under Homo sapiens [14]; 0.0209 in the series filed under Homo sapiens [16]. Further, the Activity was 0.0782% in [2]; 0.0838% in series [3]; 0.0691% in series [4]; 0.0741% in [6]; 0.0733% in series [8]; 0.0735% in series [11]. In series [15], this molecule had an Activity of 0.0732%. Also, the Recovery in series [9] was 97.1%; in series [12], 95.2%; in series [13] it was 93.3%.

For the origin of these results see ChEMBL document CHEMBL1148239, “Studies on intestinal permeability of cirrhotic patients by analysis lactulose and mannitol in urine with HPLC/RID/MS” (Bioorg Med Chem Lett, 2004).
